Source: ChEMBL document CHEMBL3817795, “Identification and optimisation of a series of N-(4-anilino-2-pyridyl)acetamide activin receptor-like kinase 1 (ALK1) inhibitors” (Medchemcomm, 2016)
In brackets after ≈: the same amount, converted by molar mass.

Columns and labels:
[1] = molecular target: Dual specificity tyrosine-phosphorylation-regulated kinase 3 (Homo sapiens) (UniProt O43781); experiment: Inhibition of human recombinant full-length DYRK3 expressed in Escherichia coli at 1 uM using KKISGRLSPIMTEQ as substrate after 30 mins
[2] = molecular target: Dual specificity tyrosine-phosphorylation-regulated kinase 1A (Homo sapiens) (UniProt Q13627); experiment: Inhibition of human recombinant DYRK1A (1 to 499 residues) expressed in Escherichia coli at 1 uM using KKISGRLSPIMTEQ as substrate after 30 mins
[3] = molecular target: Mitogen-activated protein kinase 8 (Homo sapiens) (UniProt P45983); experiment: Inhibition of JNK1 (unknown origin) at 1 uM after 30 mins
[4] = Clearance in Han Wistar rat; format: ADME, organism-based; settings: in vivo
[5] = molecular target: Serine/threonine-protein kinase 26 (Homo sapiens) (UniProt Q9P289); experiment: Inhibition of MST4 (unknown origin) at 1 uM
[6] = molecular target: Ribosomal protein S6 kinase alpha-3 (Homo sapiens) (UniProt P51812); experiment: Inhibition of MAPKAPK1B (unknown origin) at 1 uM
[7] = molecular target: Vascular endothelial growth factor receptor 1 (Homo sapiens) (UniProt P17948); experiment: Inhibition of human recombinant full-length FLT1 at 1 uM after 30 mins
[8] = molecular target: Tyrosine-protein kinase SYK (Homo sapiens) (UniProt P43405); experiment: Inhibition of SYK (unknown origin) at 1 uM
[9] = molecular target: Cyclin-dependent kinase 2 (Homo sapiens) (UniProt P24941); experiment: Inhibition of human recombinant full-length CDK2 expressed in Escherichia coli at 1 uM after 30 mins
Mus musculus = experiment: Free drug concentration in nude mouse at 50 mg/kg, po administered as single dose after 24 hrs; format: ADME, organism-based; settings: in vivo
[10] = test system: RAC-beta serine/threonine-protein kinase (Homo sapiens), P31751 [S474D]; experiment: Inhibition of human recombinant AKT2 S474D mutant (120 to 481 residues) expressed in insect Sf21 cells at 1 uM using GRPRTSSFAEGKK as substrate after 30 mins
[11] = molecular target: Aurora kinase B (Homo sapiens) (UniProt Q96GD4); experiment: Inhibition of human recombinant full-length AurKB expressed in insect Sf21 cells at 1 uM using LRRLSLGLRRLSLGLRRLSLGLRRLSLG as substrate after 30 mins
[12] = molecular target: Serine/threonine-protein kinase PLK1 (Homo sapiens) (UniProt P53350); experiment: Inhibition of human recombinant full-length PLK1 expressed in insect Sf21 cells at 1 uM using ISDELMDATFADQEAKKK as substrate after 30 mins
[13] = molecular target: Homeodomain-interacting protein kinase 2 (Homo sapiens) (UniProt Q9H2X6); experiment: Inhibition of human recombinant HIPK2 (165 to 564 residues) expressed in Escherichia coli at 1 uM after 30 mins
[14] = molecular target: Ephrin type-B receptor 3 (Homo sapiens) (UniProt P54753); experiment: Inhibition of EPHB3 (unknown origin) at 1 uM
[15] = molecular target: Activin receptor type-1-like (Homo sapiens, UniProt P37023); experiment: Inhibition of ALK1 in HMEC-1 assessed as translocation of pSMAD1/5
[16] = molecular target: Tyrosine-protein kinase Yes (Homo sapiens) (UniProt P07947); experiment: Inhibition of human recombinant full-length YES1 expressed in insect Sf21 cells at 1 uM using poly(Glu4-Tyr1) as substrate after 30 mins
[17] = molecular target: Serine/threonine-protein kinase D1 (Homo sapiens) (UniProt Q15139); experiment: Inhibition of human recombinant full-length PKD1 expressed in insect Sf21 cells at 1 uM using KKLNRTLSVA as substrate after 30 mins
[18] = Oral bioavailability in Han Wistar rat; format: ADME, organism-based; settings: in vivo
[19] = Solubility of the compound; format: physicochemical
[20] = molecular target: Inhibitor of nuclear factor kappa-B kinase subunit epsilon (Homo sapiens) (UniProt Q14164); experiment: Inhibition of human recombinant full-length IKKepsilon expressed in insect Sf21 cells at 1 uM using MBP as substrate after 30 mins
[21] = molecular target: Calcium/calmodulin-dependent protein kinase kinase 2 (Homo sapiens) (UniProt Q96RR4); experiment: Inhibition of human recombinant full-length CAMKKbeta expressed in Escherichia coli at 1 uM using AKPKGNKDYHLQTCCGSLAYRRR as substrate
[22] = molecular target: Lymphokine-activated killer T-cell-originated protein kinase (Homo sapiens) (UniProt Q96KB5); experiment: Inhibition of human recombinant full-length PBK at 1 uM after 30 mins
[23] = molecular target: 3-phosphoinositide-dependent protein kinase 1 (Homo sapiens) (UniProt O15530); experiment: Inhibition of PDPK1 (unknown origin) at 1 uM
[24] = molecular target: Glycogen synthase kinase-3 beta (Homo sapiens) (UniProt P49841); experiment: Inhibition of human recombinant full-length GSK3beta at 1 uM after 30 mins
[25] = AUC in Han Wistar rat at 5 umol/kg; format: ADME, organism-based; settings: in vivo
[26] = molecular target: Ephrin type-A receptor 2 (Homo sapiens) (UniProt P29317); experiment: Inhibition of human recombinant EPHA2 receptor (591 to 976 residues) expressed in insect Sf21 cells at 1 uM using poly(Glu4-Tyr1) as substrate after 30 mins
[27] = molecular target: Eukaryotic elongation factor 2 kinase (Homo sapiens) (UniProt O00418); experiment: Inhibition of human recombinant full-length EF2K expressed in Escherichia coli at 1 uM using RKKFGESKTKTKEFL as substrate after 30 mins
TGF-beta receptor type-1 = TGF-beta receptor type-1 (Homo sapiens, UniProt P36897); experiment: Inhibition of full length human N-terminal GST-tagged ALK5 expressed in baculovirus by FRET assay
[28] = molecular target: Protein kinase C alpha type (Homo sapiens) (UniProt P17252); experiment: Inhibition of human recombinant full-length PKCa expressed in insect Sf21 cells at 1 uM using histone H1 as substrate after 30 mins
Homo sapiens = organism: Homo sapiens; experiment: Inhibition of human recombinant full-length PKA expressed in Escherichia coli at 1 uM using LRRASLG as substrate after 30 mins
[29] = molecular target: Serine/threonine-protein kinase pim-3 (Homo sapiens) (UniProt Q86V86); experiment: Inhibition of human recombinant full-length PIM3 expressed in insect Sf21 cells at 1 uM using RSRHSSYPAGT as substrate after 30 mins
[30] = molecular target: Serine/threonine-protein kinase TBK1 (Homo sapiens) (UniProt Q9UHD2); experiment: Inhibition of human recombinant full-length TBK1 expressed in insect Sf21 cells at 1 uM using AKPKGNKDYHLQTCCGSLAYRRR as substrate
[31] = molecular target: Proto-oncogene tyrosine-protein kinase Src (Homo sapiens) (UniProt P12931); experiment: Inhibition of Src (unknown origin) by HTRF assay
Activin receptor type-1B = Activin receptor type-1B (Homo sapiens, UniProt P36896); experiment: Inhibition of human recombinant GST-tagged ALK4 expressed in baculovirus by FRET assay
[32] = molecular target: Serine/threonine-protein kinase Nek2 (Homo sapiens) (UniProt P51955); experiment: Inhibition of human recombinant full-length NEK2a expressed in insect Sf21 cells at 1 uM using RFRRSRRMI as substrate after 30 mins

Mitogen-activated protein kinase 8 (Homo sapiens), sequence (P45983 whole entry): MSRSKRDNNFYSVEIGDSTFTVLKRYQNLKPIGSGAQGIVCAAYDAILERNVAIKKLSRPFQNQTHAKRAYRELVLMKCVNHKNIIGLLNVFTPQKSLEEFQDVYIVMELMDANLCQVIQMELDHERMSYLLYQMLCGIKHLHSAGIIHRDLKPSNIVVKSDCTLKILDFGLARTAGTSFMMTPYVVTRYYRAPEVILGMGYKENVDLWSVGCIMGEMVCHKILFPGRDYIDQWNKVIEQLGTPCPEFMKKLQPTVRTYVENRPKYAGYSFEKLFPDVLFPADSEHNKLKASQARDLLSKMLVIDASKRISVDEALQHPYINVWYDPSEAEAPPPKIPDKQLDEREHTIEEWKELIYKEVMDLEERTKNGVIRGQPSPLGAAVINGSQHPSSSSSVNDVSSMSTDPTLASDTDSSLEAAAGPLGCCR
Serine/threonine-protein kinase PLK1 (Homo sapiens), sequence (P53350 whole entry, the tested form may be a part): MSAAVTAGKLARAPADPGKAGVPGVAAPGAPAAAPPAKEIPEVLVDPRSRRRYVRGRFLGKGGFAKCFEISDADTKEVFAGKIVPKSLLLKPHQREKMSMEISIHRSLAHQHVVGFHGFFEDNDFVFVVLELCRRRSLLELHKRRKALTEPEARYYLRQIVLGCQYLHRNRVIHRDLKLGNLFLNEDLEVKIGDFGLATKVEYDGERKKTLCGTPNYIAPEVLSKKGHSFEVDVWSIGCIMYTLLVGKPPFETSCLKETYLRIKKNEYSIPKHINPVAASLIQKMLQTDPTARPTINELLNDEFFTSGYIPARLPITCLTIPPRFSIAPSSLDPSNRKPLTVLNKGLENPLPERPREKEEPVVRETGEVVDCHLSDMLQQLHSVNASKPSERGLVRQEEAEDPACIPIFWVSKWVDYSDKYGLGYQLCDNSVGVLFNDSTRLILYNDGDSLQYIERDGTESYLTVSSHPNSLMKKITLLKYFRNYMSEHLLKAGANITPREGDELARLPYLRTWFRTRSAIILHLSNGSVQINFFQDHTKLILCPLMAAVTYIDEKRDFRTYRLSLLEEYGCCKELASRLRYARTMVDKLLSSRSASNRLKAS
Inhibitor of nuclear factor kappa-B kinase subunit epsilon (Homo sapiens), sequence (Q14164 whole entry): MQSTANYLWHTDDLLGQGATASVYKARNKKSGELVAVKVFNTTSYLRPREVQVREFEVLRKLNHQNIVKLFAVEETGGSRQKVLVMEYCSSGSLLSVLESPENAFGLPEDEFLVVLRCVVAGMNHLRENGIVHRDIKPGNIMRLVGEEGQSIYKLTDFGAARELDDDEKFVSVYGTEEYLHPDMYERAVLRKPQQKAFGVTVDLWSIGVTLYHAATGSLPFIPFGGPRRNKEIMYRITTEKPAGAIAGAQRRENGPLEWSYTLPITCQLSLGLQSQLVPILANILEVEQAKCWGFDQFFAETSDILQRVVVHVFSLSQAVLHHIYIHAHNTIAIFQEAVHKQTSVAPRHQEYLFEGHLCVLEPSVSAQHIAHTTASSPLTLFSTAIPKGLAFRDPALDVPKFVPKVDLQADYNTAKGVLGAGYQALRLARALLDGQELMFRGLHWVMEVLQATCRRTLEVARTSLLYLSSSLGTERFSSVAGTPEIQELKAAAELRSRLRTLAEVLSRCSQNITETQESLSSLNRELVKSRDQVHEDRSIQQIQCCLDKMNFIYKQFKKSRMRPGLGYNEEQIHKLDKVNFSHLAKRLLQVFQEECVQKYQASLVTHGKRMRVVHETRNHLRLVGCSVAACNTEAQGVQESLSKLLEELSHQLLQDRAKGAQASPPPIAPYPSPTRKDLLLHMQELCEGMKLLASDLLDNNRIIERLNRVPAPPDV
Serine/threonine-protein kinase D1 (Homo sapiens), sequence (Q15139 whole entry): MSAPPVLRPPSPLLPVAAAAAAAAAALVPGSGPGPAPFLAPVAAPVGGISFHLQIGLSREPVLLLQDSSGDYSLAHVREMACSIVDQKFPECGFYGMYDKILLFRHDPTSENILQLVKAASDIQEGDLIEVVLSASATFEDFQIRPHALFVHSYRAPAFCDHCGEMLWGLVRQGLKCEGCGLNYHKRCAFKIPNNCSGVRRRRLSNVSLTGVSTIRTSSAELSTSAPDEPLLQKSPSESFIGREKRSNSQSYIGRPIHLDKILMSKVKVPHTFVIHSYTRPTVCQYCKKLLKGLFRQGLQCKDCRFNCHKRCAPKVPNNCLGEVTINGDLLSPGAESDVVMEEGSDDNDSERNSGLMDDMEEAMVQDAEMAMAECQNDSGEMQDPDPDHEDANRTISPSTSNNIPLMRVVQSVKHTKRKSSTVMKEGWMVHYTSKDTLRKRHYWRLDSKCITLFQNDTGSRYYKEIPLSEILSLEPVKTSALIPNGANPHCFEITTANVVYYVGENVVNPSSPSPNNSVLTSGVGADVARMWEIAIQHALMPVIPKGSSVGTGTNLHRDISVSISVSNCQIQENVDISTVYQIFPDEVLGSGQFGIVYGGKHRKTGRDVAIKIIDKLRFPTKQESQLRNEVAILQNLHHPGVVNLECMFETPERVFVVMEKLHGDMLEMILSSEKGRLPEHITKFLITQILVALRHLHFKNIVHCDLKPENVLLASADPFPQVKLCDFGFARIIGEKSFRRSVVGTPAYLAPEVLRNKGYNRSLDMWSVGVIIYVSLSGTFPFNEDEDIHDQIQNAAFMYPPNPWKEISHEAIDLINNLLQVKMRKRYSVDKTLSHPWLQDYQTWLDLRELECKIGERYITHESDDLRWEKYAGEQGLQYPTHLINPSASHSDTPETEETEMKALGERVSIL
Homeodomain-interacting protein kinase 2 (Homo sapiens), sequence (Q9H2X6 whole entry, looked up, the tested form may be a part): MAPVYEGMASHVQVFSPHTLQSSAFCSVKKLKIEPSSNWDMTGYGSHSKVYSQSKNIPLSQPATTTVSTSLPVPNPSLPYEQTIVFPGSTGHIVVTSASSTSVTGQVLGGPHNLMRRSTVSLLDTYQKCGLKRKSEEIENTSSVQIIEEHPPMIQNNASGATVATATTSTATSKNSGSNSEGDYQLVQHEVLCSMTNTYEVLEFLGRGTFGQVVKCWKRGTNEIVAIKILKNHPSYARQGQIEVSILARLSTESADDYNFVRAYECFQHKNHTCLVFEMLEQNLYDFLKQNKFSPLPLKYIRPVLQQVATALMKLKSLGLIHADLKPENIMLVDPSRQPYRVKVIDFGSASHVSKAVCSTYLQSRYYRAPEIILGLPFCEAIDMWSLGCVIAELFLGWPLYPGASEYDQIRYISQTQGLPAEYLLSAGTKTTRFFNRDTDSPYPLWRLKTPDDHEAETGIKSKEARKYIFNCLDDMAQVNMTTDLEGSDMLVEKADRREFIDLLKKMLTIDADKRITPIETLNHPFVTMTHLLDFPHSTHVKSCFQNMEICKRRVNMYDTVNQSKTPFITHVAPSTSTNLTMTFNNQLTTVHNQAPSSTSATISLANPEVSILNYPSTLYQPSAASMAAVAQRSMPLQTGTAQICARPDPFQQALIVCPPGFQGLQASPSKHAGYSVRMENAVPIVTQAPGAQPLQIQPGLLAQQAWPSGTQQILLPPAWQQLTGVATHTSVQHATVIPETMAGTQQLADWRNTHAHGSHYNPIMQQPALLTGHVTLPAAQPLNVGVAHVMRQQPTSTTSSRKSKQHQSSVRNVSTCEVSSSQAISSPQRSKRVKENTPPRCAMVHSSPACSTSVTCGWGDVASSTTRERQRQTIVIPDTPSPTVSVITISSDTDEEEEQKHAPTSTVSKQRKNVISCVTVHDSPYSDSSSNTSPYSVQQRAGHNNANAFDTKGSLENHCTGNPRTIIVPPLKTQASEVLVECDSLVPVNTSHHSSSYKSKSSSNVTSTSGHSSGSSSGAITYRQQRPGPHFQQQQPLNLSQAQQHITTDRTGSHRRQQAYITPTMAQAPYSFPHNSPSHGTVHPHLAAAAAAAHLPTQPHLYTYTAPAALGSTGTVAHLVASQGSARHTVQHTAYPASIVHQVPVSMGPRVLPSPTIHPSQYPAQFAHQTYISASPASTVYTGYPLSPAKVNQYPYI
Lymphokine-activated killer T-cell-originated protein kinase (Homo sapiens), sequence (Q96KB5 whole entry): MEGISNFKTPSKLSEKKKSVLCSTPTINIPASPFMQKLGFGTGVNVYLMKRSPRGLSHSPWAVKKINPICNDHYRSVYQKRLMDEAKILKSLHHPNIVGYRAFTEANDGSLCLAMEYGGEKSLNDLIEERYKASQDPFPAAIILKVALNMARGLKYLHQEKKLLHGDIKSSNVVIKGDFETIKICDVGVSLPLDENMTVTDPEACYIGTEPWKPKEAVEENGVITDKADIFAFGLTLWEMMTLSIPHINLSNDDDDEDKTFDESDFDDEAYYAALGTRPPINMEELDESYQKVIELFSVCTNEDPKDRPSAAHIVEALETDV
Calcium/calmodulin-dependent protein kinase kinase 2 (Homo sapiens), sequence (Q96RR4 2-588 limits assumed): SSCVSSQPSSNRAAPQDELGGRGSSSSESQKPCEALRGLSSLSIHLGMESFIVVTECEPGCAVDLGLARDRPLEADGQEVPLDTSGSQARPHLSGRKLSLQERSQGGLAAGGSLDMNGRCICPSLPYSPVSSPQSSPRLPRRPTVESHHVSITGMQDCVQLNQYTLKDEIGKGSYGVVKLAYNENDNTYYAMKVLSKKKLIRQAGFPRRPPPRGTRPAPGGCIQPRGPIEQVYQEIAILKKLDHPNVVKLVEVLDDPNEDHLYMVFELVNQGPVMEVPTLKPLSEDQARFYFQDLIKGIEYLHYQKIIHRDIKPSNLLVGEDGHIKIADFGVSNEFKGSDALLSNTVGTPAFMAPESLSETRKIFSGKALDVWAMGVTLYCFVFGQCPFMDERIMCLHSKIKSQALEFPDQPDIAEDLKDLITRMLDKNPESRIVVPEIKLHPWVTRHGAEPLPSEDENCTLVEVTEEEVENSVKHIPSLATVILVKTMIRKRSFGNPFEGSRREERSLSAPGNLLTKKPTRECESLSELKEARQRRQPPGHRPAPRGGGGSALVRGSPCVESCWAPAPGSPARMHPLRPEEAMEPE

- inhibition [1]: < 80%
- inhibition [2]: < 80%
- inhibition [3]: < 80%
- clearance [4]: 8.4 mL/min/kg
- inhibition [5]: < 80%
- inhibition [6]: < 80%
- inhibition [7]: < 80%
- inhibition [8]: < 80%
- inhibition [9]: < 80%
- Drug uptake(free) (Mus musculus): 0.37 µM
- inhibition [10]: < 80%
- inhibition [11]: < 80%
- inhibition [12]: < 80%
- inhibition [13]: < 80%
- inhibition [14]: < 80%
- IC50 [15]: 0.045 µM
- inhibition [16]: > 50%
- inhibition [17]: < 80%
- bioavailability [18]: 38%
- solubility [19]: 63 µM (≈ 21 µg/mL)
- inhibition [20]: < 80%
- inhibition [21]: < 80%
- inhibition [23]: < 80%
- inhibition [24]: < 80%
- AUC [25]: 3.8 µM·h
- inhibition [26]: > 50%
- inhibition [27]: < 80%
- IC50 (TGF-beta receptor type-1): 0.0019 µM
- inhibition [28]: < 80%
- inhibition (Homo sapiens): < 80%
- inhibition [29]: < 80%
- inhibition [30]: < 80%
- INH [31]: 4.4 µM
- IC50 (Activin receptor type-1B): 0.031 µM
- inhibition [32]: < 80%
Compound: O=C(Nc1cc(Nc2c(Cl)cnc3c2OCO3)ccn1)C1CC1
- inhibition [22]: < 80%
